This passage reports IC50 and ED50 results from US5001255A, “Idene analogs of mevalonolactone and derivatives thereof” (Sandoz Pharm. Corp., priority 1988, dated 1991).

In assay [1] the target is T1, HMG-CoA reductase (Rattus norvegicus, UniProt P51639).
T1 sequence (P51639 1-887): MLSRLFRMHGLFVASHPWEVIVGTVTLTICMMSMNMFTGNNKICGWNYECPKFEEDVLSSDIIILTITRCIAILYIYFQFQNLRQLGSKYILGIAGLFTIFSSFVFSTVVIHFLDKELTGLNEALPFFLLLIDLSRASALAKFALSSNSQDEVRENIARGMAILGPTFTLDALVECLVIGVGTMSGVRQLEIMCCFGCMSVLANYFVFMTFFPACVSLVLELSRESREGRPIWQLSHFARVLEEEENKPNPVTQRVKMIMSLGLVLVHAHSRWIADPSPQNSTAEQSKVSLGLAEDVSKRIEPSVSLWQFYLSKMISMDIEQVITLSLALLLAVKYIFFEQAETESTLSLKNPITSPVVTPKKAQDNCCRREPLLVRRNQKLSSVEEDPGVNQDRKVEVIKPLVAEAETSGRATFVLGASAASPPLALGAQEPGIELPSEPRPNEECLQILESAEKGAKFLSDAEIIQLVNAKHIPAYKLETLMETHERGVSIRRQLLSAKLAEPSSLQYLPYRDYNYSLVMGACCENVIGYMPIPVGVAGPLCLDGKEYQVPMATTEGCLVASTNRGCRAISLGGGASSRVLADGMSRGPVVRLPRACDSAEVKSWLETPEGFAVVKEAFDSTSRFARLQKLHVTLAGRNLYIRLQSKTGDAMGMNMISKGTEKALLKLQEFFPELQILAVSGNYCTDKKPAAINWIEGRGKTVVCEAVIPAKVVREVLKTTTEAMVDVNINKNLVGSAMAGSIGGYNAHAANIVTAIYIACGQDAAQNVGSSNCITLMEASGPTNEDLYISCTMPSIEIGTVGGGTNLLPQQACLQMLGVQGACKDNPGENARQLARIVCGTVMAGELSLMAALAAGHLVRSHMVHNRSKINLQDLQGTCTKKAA
Description: Test A. In Vitro Microsomal Assay of HMG-CoA Reductase Inhibition. The class given is biochemical, rat (male Sprague-Dawley). The settings on record: rat liver microsomes; [14C]HMG-CoA substrate; test substance 0.0001-2,000 μmolar; read-out: IC50 (concentration producing a 50% inhibition of HMG-CoA reductase activity). Here is the method: Test A. In Vitro Microsomal Assay of HMG-CoA Reductase Inhibition:
200 μl. aliquots (1.08-1.50 mg./ml.) of rat liver microsomal suspensions, freshly prepared from male Sprague-Dawley rats (150-225 g. body weight), in Buffer A with 10 mmol. dithiothreitol are incubated with 10 μl. of a solution of the test substance in dimethylacetamide and assayed for HMG-CoA reductase activity as described in Ackerman et al., J. Lipid Res. 18, 408-413 (1977), the concentration of the test substance in the assay system being 0.0001-2,000 μmolar. In the assay the microsomes are the source of the HMG-CoA reductase enzyme which catalyzes the reduction of HMG-CoA to mevalonate. The assay employs a chloroform extraction to separate the product, [^14 C]mevalonolactone, formed by the HMG-CoA reductase reduction of the substrate, [^14 C]HMG-CoA. [^3 H]mevalonolactone is added as an internal reference. Inhibition of HMG-CoA reductase is calculated from the decrease in specific activity ([^14 C/^3 H]mevalonate) of test groups compared to controls.
IC50 is the concentration of the test substance in the assay system calculated or observed to produce a 50% inhibition of HMG-CoA reductase activity.
(In general: Microsomes from liver hold many membrane-bound enzymes, among them those of drug oxidation.)

The test system of assay [2] is 3β-hydroxysterol synthesis. Description: Test B. In Vivo Cholesterol Biosynthesis Inhibition Test. The settings on record: Rattus norvegicus; rats, oral, 0.5% carboxymethylcellulose; i.p. sodium [1-14C]acetate one hour later; serum two hours after mid-dark; read-out: ED50 (dose producing a 50% inhibition of 3β-hydroxysterol synthesis). On the set-up: species or system rat (male Wistar Royal Hart).
Description: Test B. In Vivo Cholesterol Biosynthesis Inhibition Test:
In vivo studies utilize male Wistar Royal Hart rats weighing 150±20 g. which have been kept for 7-10 days on an
altered light cycle (6:30 A.M.-6:30 P.M. dark) housed two per cage and fed powdered Purina Rat Chow and water ad libitum. Three hours before the diurnal maximum of cholesterol synthesis at mid-dark, the rats are orally administered the test substance (e.g., 0.01-200 mg./kg. body weight) dissolved or as a suspension in 0.5% carboxymethylcellulose in a volume of 1 ml./100 g. body weight. Controls receive vehicle alone. One hour after receiving the test substance (or the vehicle alone), the rats are injected intraperitoneally with about 25 μCi/100 g. body weight of sodium [1-^14 C]acetate 1-3 mCi/mmol. Two hours after mid-dark, blood samples are obtained under sodium hexobarbitol anesthesia, and the serum is separated by centrifugation.
The [^14 C]digitonides are then counted by liquid scintillation spectrometry. After correcting for efficiencies, the results are calculated in nCi (nanocuries) of 3β-hydroxysterol formed per 100 ml. of serum. Inhibition of 3β-hydroxysterol synthesis is calculated from the reduction in the nCi of 3β-hydroxysterols formed from test qroups compared to controls.
ED50 is the dose of the test substance calculated or observed to produce a 50% inhibition of 3β-hydroxysterol synthesis.

`O=C(O)C[C@H](O)C[C@H](O)/C=C/C1=C(c2ccc(F)cc2)c2ccccc2C12CCCC2`: the IC50 in assay [1] came out at 3 nM.

As to `O=C(O)C[C@H](O)C[C@H](O)/C=C/C1=C(c2ccc(F)cc2)c2ccccc2C12CCCC2` (relative stereo) [Example 2, Sodium erythro-(E)-3,5-dihydroxy-7-[3'-(4"-fluorophenyl)spiro[cyclopentane-1,1'(1H)-inden]-2'-yl]hept-6-enoate], in assay [1], the IC50 was found to be 5 nM. For the same molecule, the ED50 – broadly, the dose that gives a 50% effect, or the effect in half of the subjects – in assay [2] came out at 0.07 mg/kg.

In the case of `Cc1cc(C)cc(C2=C(/C=C/[C@H]3C[C@@H](O)CC(=O)O3)C3(CCCC3)c3ccccc32)c1` (relative stereo) [Example 7], in assay [1], the IC50 turned out to be 150 nM.

On to `Cc1cc(C)cc(C2=C(/C=C/[C@@H](O)C[C@@H](O)CC(=O)O)C3(CCCC3)c3ccccc32)c1` (relative stereo) [Example 8, Sodium erythro-(E)-3,5-dihydroxy-7-[3'-(3",5"-dimethylphenyl)spiro[cyclopentane-1,1'(1H)-inden]-2'-yl]hept-6-enoate], for which, in assay [1], the IC50 stood at 7 nM. For the same molecule, the ED50 in assay [2] came out at 0.31 mg/kg.

With `CC[C@H](C)C(=O)O[C@H]1CCC=C2C=C[C@H](C)[C@H](CC[C@@H]3C[C@@H](O)CC(=O)O3)[C@H]21` [Compactin, reference compound], the ED50 in assay [2] amounted to 3.5 mg/kg.

For the molecule `CCC1(CC)C(/C=C/C(O)CC(O)CC(=O)O)=C(c2ccc(F)cc2)c2ccccc21` (centres unmarked) [Example 17], the IC50 in assay [1] is 4700 nM.

Regarding `CC(C)C1C(/C=C/[C@@H]2C[C@@H](O)CC(=O)O2)=C(c2ccc(F)cc2)c2ccccc21` (some centres unmarked) [Example 20], in assay [1], the IC50 worked out at 530 nM.

For `CCOC(=O)CC(O)CC(O)/C=C/C1=C(c2ccc(F)cc2)c2ccccc2C12CC2` (centres unmarked) [Example 24], in assay [1], the IC50 was found to be 19 nM. The ED50 in assay [2] was determined as 0.71 mg/kg.
